Source: US20190297888A1, “FUNGICIDAL COMPOUNDS AND MIXTURES FOR FUNGAL CONTROL IN CEREALS” (Dow AgroSciences LLC, priority 2016, published 2019)

Legend:
Format in all cases: in vivo
[1] = test system: Puccinia striiformis (PUCCST); assay: Field assessment of Compound I and fluxapyroxad on yellow rust of wheat (AUDPC % control); settings: AUDPC-based, 2 field trials
Excerpt: Treatments consisting of the compound of Formula I and fungicide compound fluxapyroxad against fungal diseases of wheat were applied either using individually or as a two-way mixture of fluxapyroxad with the compound of Formula I. The compound of Formula I was applied with Agnique BP-420 (50% w/w at 0.3% v/v) at 50, 75 and 100 g ai/ha and Imtrex (Fluxapyroxad 62.5 g/L) was applied at 50, 75 and 100 g ai/ha. Commercial standards used in the studies were Adexar (epoxiconazole+fluxapyroxad—125 g/L), applied at 1.2 and 1.6 L pr/ha, and Elatus Era (benzovindiflupyr+prothioconazole—225 g/L), applied at 1.0 L pr/ha.
Fungicidal treatments containing the compound of Formula I and fluxapyroxad, either individually or as a two-way mixture, were assessed against yellow rust of wheat (PUCCST) in two separate field trials. In the first trial, fungicidal treatments were applied once at B37 (early curative, 6.5% infection at application on L3) growth stage of winter wheat (TRZAW, Fairplay variety). The treatments were part of an experimental trial designed as a randomized complete block with four replications and a plot of approximately 2×6 m. Treatments were applied at water volume of 200 L/ha, using a backpack plot sprayer (BKPCKAIR, FLATFANA nozzle) and pressurized at 300 kPa.
In the second trial, fungicidal treatments containing the compound of Formula I and fluxapyroxad, either individually or as a two-way mixture, were applied once at B33-37 (early curative, 0.5% infection on L2 at application) growth stages of wheat (TRZAW, SOLSTICE variety). The treatment was part of an experimental trial designed as a randomized complete block with four replications and a plot of approximately 1.5×14 m. Treatments were applied at water volume of 200 L/ha, using a backpack precision plot sprayer (BKCKAIR, FLAT FAN nozzle) and pressurized at 210 kPa.
(§1) Disease severity (percentage of visual diseased foliage on whole plot or leaves) in both field trials was recorded following EPPO PP1/26 guideline prescriptions. Area under the disease progress curve (AUDPC) was calculated for each plot in both trials using the sets of recorded severity data. Relative AUDPC (% control based on AUDPC) was calculated as percent of the nontreated control. Final results for the control of yellow rust of wheat by the compound of Formula I, fluxapyroxad and mixtures are reported as an average of the relative AUDPC calculated over both field trials. Statistical analysis was done according to ANOVA and Tukey's test (p=0.10).

[2] = test system: Puccinia hordei (PUCCHD); assay: Field assessment of Compound I and fluxapyroxad on rust of barley (AUDPC % control); settings: AUDPC-based, 2 field trials
Experimental: Commercial standards used in the studies were Proline 275 (275 g ai/L Prothioconazole), applied at 150 g ai/ha, and SiltraXpro (200 g ai/L prothioconazole+60 g ai/[…] bixafen), applied at 195 g ai/ha.
Fungicidal treatments containing the compound of Formula I and fluxapyroxad, either individually or as a two-way mixture, were assessed against rust of barley (PUCCHD) in two separate field trials. In both trials, fungicidal treatments were applied at B37-39 growth stages of winter barley (Lomeritt variety) under natural infection of barley rust. All treatments were part of an experimental trial designed as a randomized complete block with four replications.
Disease severity (percentage of visual diseased foliage on whole plot or leaves) in […] field trials was recorded following EPPO PP1/26 guideline prescriptions. Area under the disease progress curve (AUDPC) was calculated for each plot in both trials using the sets of recorded severity data. Relative AUDPC (% control based on AUDPC) was calculated as percent of the nontreated control. […] Statistical analysis was done according to ANOVA and Tukey's test (p=0.10).

[3] = test system: Zymoseptoria tritici (SEPTTR); assay: Field assessment of Compound I and penthiopyrad on leaf blotch of wheat (AUDPC % control); settings: AUDPC-based, 3 field trials
Excerpt: Treatments consisting of the compound of Formula I and fungicide compound penthiopyrad were applied either using individually or as a two-way mixture of penthiopyrad with the compound of Formula I. The compound of Formula I was applied with Agnique BP-420 (50% w/w at 0.3% v/v) at 75 and 150 g ai/ha and Penthiopyrad (Vertisan) was applied at 125 and 200 g ai/ha. Commercial standards used in the studies were Fluxapyroxad (Imtrex), applied at 100 g ai/ha, and Metconazole+Fluxapyroxad (Librax), applied at 161 g ai/ha.
Fungicidal treatments containing the compound of Formula I and penthiopyrad, either individually or as a two-way mixture, were assessed against leaf spot of wheat (SEPTTR) in three separate field trials. In the first trial, fungicidal treatments were applied at B33 (3% infection at application on L3) growth stage of winter wheat (TRZAW, Dinosor variety). The treatments were part of an experimental trial designed as a randomized complete block with four replications and a plot of approximately 1×6 m. Treatments were applied at water volume of 200 L/ha, using a backpack plot sprayer (BKPCKENG, FLATFANA nozzle) and pressurized at 200 kPa.
In the second trial, fungicidal treatments were applied twice at B32 (curative, 25% infection at application on L5) and B37-39 (5% infection at application on L3) growth stages of winter wheat (TRZAW, Consort variety). The treatments were part of an experimental trial designed as a randomized complete block with four replications and a plot of approximately 1×2 m. Treatments were applied at water volume of 200 L/ha, using a backpack plot sprayer (BKPCKAIR, Flat fan nozzle) and pressurized at 210 kPa.
In the final trial, fungicidal treatments were applied twice at B32 (protective, 15% infection at application on L6) and B37-39 (12% infection at application on L5) growth stages of winter wheat (TRZAW, Smaragd variety). The treatments were part of an experimental trial designed as a randomized complete block with four replications and a plot of approximately 2×3 m. Treatments were applied at water volume of 200 L/ha, using a backpack plot sprayer (BICYCAIR, FLATFANA nozzle) and pressurized at 220 kPa.
as §1, with “of leaf spot” for “of yellow rust”, “I, penthiopyrad” for “I, fluxapyroxad”, “over all three” for “over both”, “trials. […]” for “trials. Statistical analysis was done according to ANOVA and Tukey's test (p=0.10).”

| SMILES | PUCCST % Control ([1]; rate 50 g ai/ha) [%] | PUCCST % Control ([1]; rate 75 g ai/ha) [%] | PUCCST % Control ([1]; rate 100 g ai/ha) [%] | PUCCHD % Control ([2]; rate 45 g ai/ha) [%] | PUCCHD % Control ([2]; rate 62.5 g ai/ha) [%] | PUCCHD % Control ([2]; rate 100 g ai/ha) [%] | SEPTTR % Control ([3]; rate 75 g ai/ha) [%] | SEPTTR % Control ([3]; rate 150 g ai/ha) [%] | PUCCHD % Control ([2]; rate 75 g ai/ha) [%] | PUCCHD % Control ([2]; rate 150 g ai/ha) [%] |
| --- | --- | --- | --- | --- | --- | --- | --- | --- | --- | --- |
| Cn1cc(C(=O)Nc2ccccc2-c2cc(F)c(F)c(F)c2)c(C(F)F)n1 [Fluxapyroxad, 3-(difluoromethyl)-1-methyl-N-(3′,4′,5′-trifluorobiphenyl-2-yl)pyrazole-4-carboxamide] | 74.1 | 69.0 | 79.4 | 49.0 | 54.5 | 68.7 |  |  |  |  |
| N#Cc1ccc(Oc2ccc(C(F)(F)C(O)(Cn3ncnc3S)c3ccc(F)cc3F)nc2)cc1 (centres unmarked) [Compound I, 4-((6-(2-(2,4-difluorophenyl)-1,1-difluoro-2-hydroxy-3-(5-mercapto-1H-1,2,4-triazol-1-yl)propyl)pyridin-3-yl)oxy)benzonitrile] | 80.0 | 93.3 | 98.0 |  |  | 75.3 | 60.6 | 71.1 | 71.0 | 88.8 |
